Measurements reported in patent US9156872B2, “2′-azido substituted nucleoside derivatives and methods of use thereof for the treatment of viral diseases” (priority 2011, dated 2015).

Each molecule was assayed on HCV replicon cells (assay: Cell-based HCV replicon assay (replicon RNA by Taqman real time PCR)). Details: Hepatitis C virus, 72 h, HCV replicon 1b, cells harvested on day 3; read-out: 1b EC50.
In the case of `CCCC(CCC)COC(=O)[C@H](C)NP(=O)(O)OC[C@H]1O[C@@H](n2ccc(N)nc2=O)[C@](C)(N=[N+]=[N-])[C@@H]1O` [Compound 318], the EC50 is reported as 100000 nM.

Same assay, conditions: Hepatitis C virus, 72 h, read-out: 1b EC50
`CCOC(=O)[C@H](C)NP(=O)(OC[C@H]1O[C@@H](n2cnc3c(OC)nc(N)nc32)[C@](C)(N=[N+]=[N-])[C@@H]1O)Oc1ccc(F)cc1` (stereo partly drawn) [Compound 247] gave an EC50 of 700 nM.
With `CCCOC(=O)[C@H](C)NP(=O)(OC[C@H]1O[C@@H](n2ccc(=O)[nH]c2=O)[C@](C)(N=[N+]=[N-])[C@@H]1O)Oc1ccccc1` (single isomer, unassigned) [Compound 147] the EC50 was 5600 nM.
`CC(C)OC(=O)[C@H](C)NP(=O)(OC[C@H]1O[C@@H](n2ccc(N)nc2=O)[C@](C)(N=[N+]=[N-])[C@@H]1O)Oc1ccc(Cl)c(Cl)c1` (stereo partly drawn) [Compound 195] gave an EC50 of 20 nM.
Molecule `CCCCOC(=O)[C@H](C)NP(=O)(OC[C@H]1O[C@@H](n2cnc3c(OCC)nc(N)nc32)[C@](C)(N=[N+]=[N-])[C@@H]1O)Oc1ccccc1` (stereo partly drawn) [Compound 27] has an EC50 of 100 nM.
Work on `CCOC(=O)[C@H](C)NP(=O)(OC[C@H]1O[C@@H](n2cnc3c(OC)nc(N)nc32)[C@](C)(N=[N+]=[N-])C1O)Oc1ccccc1` (single isomer, unassigned) [Compound 251] yielded an EC50 of 400 nM.
`COc1nc(N)nc2c1ncn2[C@@H]1O[C@H](COP(=O)(N[C@@H](C)C(=O)OC2CCCCC2)Oc2ccc(Cl)cc2)[C@@H](O)[C@@]1(C)N=[N+]=[N-]` (single isomer, unassigned) [Compound 272] gave an EC50 of 3700 nM.
Work on `CCCCOC(=O)[C@H](C)NP(=O)(OC[C@H]1O[C@@H](n2cnc3c(OC)nc(N)nc32)[C@](C)(N=[N+]=[N-])[C@@H]1O)Oc1ccccc1` (stereo partly drawn) [Compound 249] yielded an EC50 of 900 nM.
With `COC(=O)[C@H](C)NP(=O)(OC[C@H]1O[C@@H](n2cnc3c(OC)nc(N)nc32)[C@](C)(N=[N+]=[N-])C1O)Oc1cccc2ccccc12` (single isomer, unassigned) [Compound 254] the EC50 was 1000 nM.
Work on `CCCOC(=O)[C@H](C)N[P@](=O)(OC[C@H]1O[C@@H](n2ccc(=O)[nH]c2=O)[C@](C)(N=[N+]=[N-])[C@@H]1O)Oc1cccc2ccccc12` (single isomer, unassigned) [Compound 376] yielded an EC50 of 2200 nM.

Same assay, conditions: read-out: 1b EC50
`CCOC(=O)[C@H](C)NP(=O)(OC[C@H]1O[C@@H](n2cnc3c(OC)nc(N)nc32)[C@](C)(N=[N+]=[N-])[C@@H]1O)Oc1ccc(Cl)cc1` (single isomer, unassigned) [Compound 289] showed an EC50 of 700 nM.
In the case of `COC(=O)c1ccccc1OP(=O)(N[C@@H](C)C(=O)OC)OC[C@H]1O[C@@H](n2ccc(=O)[nH]c2=O)[C@](C)(N=[N+]=[N-])[C@@H]1O` (single isomer, unassigned) [Compound 228], the EC50 is reported as 1300 nM.
Molecule `COc1nc(N)nc2c1ncn2[C@@H]1O[C@H](COP(=O)(N[C@@H](C)C(=O)OC(C)C)Oc2ccc(Cl)c(Cl)c2)[C@@H](O)[C@@]1(C)N=[N+]=[N-]` (single isomer, unassigned) [Compound 283] has an EC50 of 8400 nM.
In the case of `CCOC(=O)[C@H](C)NP(=O)(OC[C@H]1O[C@@H](n2ccc(N)nc2=O)[C@](C)(N=[N+]=[N-])[C@@H]1O)Oc1ccccc1Cl` (stereo partly drawn) [Compound 184], the EC50 is reported as 5700 nM.
Molecule `COC(=O)[C@H](C)NP(=O)(OC[C@H]1O[C@@H](n2ccc(=O)[nH]c2=O)[C@](C)(N=[N+]=[N-])[C@@H]1O)Oc1ccccc1` (single isomer, unassigned) [Compound 159] has an EC50 of 6200 nM.
`CCOc1nc(N)nc2c1ncn2[C@@H]1O[C@H](COP(=O)(N[C@@H](C)C(=O)OCc2ccccc2)Oc2ccccc2)[C@@H](O)[C@@]1(C)N=[N+]=[N-]` (single isomer, unassigned) [Compound 350] showed an EC50 of 1000 nM.
With `COc1nc(N)nc2c1ncn2[C@@H]1O[C@H](COP(=O)(N[C@@H](C)C(=O)OCC(C)(C)C)Oc2ccccc2)C(O)[C@@]1(C)N=[N+]=[N-]` (single isomer, unassigned) [Compound 292] the EC50 was 400 nM.
`CC(C)OC(=O)[C@H](C)NP(=O)(OC[C@H]1O[C@@H](n2ccc(N)nc2=O)[C@](C)(N=[N+]=[N-])[C@@H]1O)Oc1ccccc1Cl` (stereo partly drawn) [Compound 95] showed an EC50 of 4500 nM.
